Article PMC3929086, “Targeted manipulation of the sortilin–progranulin axis rescues progranulin haploinsufficiency” (Human Molecular Genetics, 2013)
Values belong to the molecule of their own block, whether it stands above or below them.

Experiments:
PGRN(588–593) peptide = assay: UV-absorption titration of BVFP with PGRN(588–593) peptide; type: binding, human; settings: 20 μM BVFP, PGRN(588–593) peptide titrated
Method: Stock solutions of compound BVFP (20 mM) and PGRN(588–593) peptide (12.96 mM) were prepared in DMSO and water, respectively. For the UV absorption experiment, both components were diluted to give final concentrations of 20 μM BVFP and 324 μM peptide. The interaction between BVFP and the PGRN(588–593) peptide was monitored by scanning over the UV absorbance range of 200–800 nm on a Cary 3 Bio UV–visible spectrophotometer (Varian), as a small amount of KKGRN peptide (0.1 equivalence/1 μl per addition) was titrated into the 20 μM BVFP sample. In addition to baseline correction with DMSO, a control titration experiment using water in place of the PGRN(588–593) peptide was performed under identical conditions in order to correct for potential spectral changes owing to sample dilution.

PGRN588–593 peptide = PGRN588–593 peptide (Homo sapiens, UniProt P28799); assay: Epic biochemical binding assay (resonant waveguide grating); settings: PGRN588–593 peptide immobilized; PBS with 5% DMSO; 30 min binding; n = 4
Text: page 6: SUPPLEMENTARY METHODS AND RESULTS Epic(R) biochemical assay and compound library screen Essentially, the Epic® is a spectrophotometric reader that uses a resonant waveguide grating detection mechanism to detect biochemical interactions (Fig.5A). In brief, the waveguide grating biosensor in each well of the 384-well assay plate intercepts broadband light and measures changes in resonant wavelengths (in picometers, pm) when a ligand binds to the target protein immobilized on the biosensor. To identify chemical binders of the PGRN588-593 peptide, we immobilized the peptide onto the biosensor surface of Epic® assay plates using an amine- coupling method, and screened 4,800 compounds. For immobilization, 150 µg/ml peptide diluted in a 20 mM sodium acetate buffer, pH 5, was added to the assay plate to incubate for overnight at 4 °C. The plate was then washed in binding buffer (PBS with 5% DMSO) for three times and equilibrated in the binding buffer for 6 h in the Epic® carousal. During the equilibration period, compounds from the library stock plate (CNS-set compound library from Chembridge®) were diluted to 50 µM in binding buffer. Each compound was tested in quadruplicate. After the equilibration, a Baseline Reading was acquired by the Epic® spectrophotometer. […] After mixing and a 30 min ‘binding’ period, a Final Reading was acquired. […]

SORT1–PGRN interaction = assay: MSD-based SORT1–PGRN interaction assay; type: biochemical, human; settings: BVFP 20 and 200 μM pre-incubated 30 min with 200 nM N-rP
Method: M17 cells were transfected with pCMV-SORT1-Flag for 48 h. Then, the cell lysate was harvested by the same method used in the co-immunoprecipitation assay. Expression of SORT1-Flag protein was confirmed by western blot. MSD plate was first coated with the Flag M2 antibody (Sigma). Following an overnight incubation at 4°C, the plate was blocked for 2 h and then washed prior to addition of 5 µg/well of lysate protein containing SORT1-Flag protein. After overnight incubation at 4°C, it was then washed and added with 200 nM of either N-6His- or C-6His-tagged rPGRN pre-incubated with either vehicle, 20 µM or 200 µM of BVFP, for 30 min at room temperature. Then plate was then incubated for 2 h, washed and incubated with a mixture of PCDGF antibody and a SULFO-TAG-labeled anti-rabbit IgG antibody for 2 h. After final wash, the plate was read by the MSD Sector Imager 2400.

[1] = test system: SORT1-mediated PGRN endocytosis; assay: Quantitative DyL-rPGRN endocytosis assay in COS-1^SORT1 cells; type: cell-based, human; settings: COS-1^SORT1, 5 μM binder pre-incubated 1 h with rPGRN, 1 h endocytosis
Method: COS-1 cells seeded on a 96-well black plate 1 day before were transfected with pCMV-SORT1 vector. After 24 h, cells were treated with fluorescence-tagged rPGRN (DyL-rPGRN) pre-labeled by DyLight™ 594 antibody labeling kit (Thermo Scientific). The DyL-rPGRN was diluted in OptiMEM to tested concentrations and incubated with the cells for 1 h for endocytosis. The cells were then washed with cold PBS and then fixed by 4% paraformaldehyde. After washing twice, each well was filled with PBS prior scanning. The total PGRN fluorescent signal from the cells was obtained by a plate reader with 593/618 nm (Ex/Em) settings. The endocytosis signal was normalized by the total nuclei signal obtained by staining with a Hoechst 33342 dye. Baseline endocytosis signal was defined as a signal from medium-only-treated cells, whereas the 100% endocytosis level was set as the signal obtained from cells treated with 50 nM DyL-rPGRN. For testing SORT1 ligands, DyL-rPGRN and the peptide were added simultaneously to the cells. For testing of PGRN binders, the binder was pre-incubated with DyL-rPGRN for 1 h before adding to the cells. For qualitative analysis, images from each well were captured by BD Pathway 855 system using a 20× magnification setting.

[2] = test system: PGRN endocytosis in WT-hESCs; assay: DyL-rPGRN endocytosis in wild-type hESCs; type: cell-based; settings: Homo sapiens; WT-hESC, BVFP, same conditions as COS-1^SORT1 (5 μM)
Text: (§1) To determine whether BVFP, when bound to PGRN, disrupts full-length PGRN and SORT1 binding, we devised a SORT1-dependent rPGRN precipitation assay utilizing the Meso-Scale Discovery (MSD) system (Supplementary Material, Fig. S4A and B). […] To include a higher-affinity PGRN588–593 motif binder as a positive control, an antibody targeting the motif, PGRN-CT antibody, was made for validating the approach (Fig. 5F). […] First, we found SORT1 was abundantly expressed in the wild-type hESCs (Fig. 5H). Similar to the results from COS-1^SORT1 cells, BVFP and PGRN-CT antibody inhibited endocytosis of DyL-rPGRN by 22 and 39%, respectively, under the same experimental conditions in wild-type hESCs (Fig. 5I left).
(§2) COS-1 cells seeded on a 96-well black plate 1 day before were transfected with pCMV-SORT1 vector. After 24 h, cells were treated with fluorescence-tagged rPGRN (DyL-rPGRN) pre-labeled by DyLight™ 594 antibody labeling kit (Thermo Scientific). The DyL-rPGRN was diluted in OptiMEM to tested concentrations and incubated with the cells for 1 h for endocytosis. The cells were then washed with cold PBS and then fixed by 4% paraformaldehyde. After washing twice, each well was filled with PBS prior scanning. The total PGRN fluorescent signal from the cells was obtained by a plate reader with 593/618 nm (Ex/Em) settings. […]

[3] = test system: PGRN endocytosis in SORT1^KO-hESCs; assay: DyL-rPGRN endocytosis in SORT1^KO-hESCs; type: cell-based, human; settings: SORT1^KO-hESC
Text: as §1, §2

GRN expression = settings: HDAC inhibitor; cited from earlier work
Text: While new strategies designed to upregulate PGRN levels have emerged, challenges remain in terms of limiting off-target effects. […] However, because HDAC and V-ATPase inhibitors can potentially affect a wide-range of genes at transcriptional and po ...

elastase = assay: Elastase digestion of rPGRN in cell culture media; type: in vitro ADME; settings: in vitro reaction with EL in culture media; compared with WT rPGRN, western blot
Method: PGRN, SORT1, GFP, GAPDH and β-actin proteins were analyzed using 10% Tris–glycine polyacrylamide gel by SDS–PAGE. After electrophoresis, proteins on gel were transblotted to PVDF membranes followed by standard immunoblotting protocols.

SORT1 = assay: PGRN endocytosis in M17 cells overexpressing SORT1; type: cell-based; settings: M17 cells overexpressing SORT1, after EL reaction
Method: M17 cells seeded in 12-well culture plates (western blot) or on glass coverslips in 24-well culture plate (immunofluorescence) were transfected with pEGFP-N1 (Clontech) or pCMV-SORT1 (OriGene) vectors. Next day, the cells were changed into serum-free medium 1 h before addition of rPGRN (500 ng/ml) and treated for 60 min. The cells were then put on ice and washed with cold PBS. For western blot, cells were lysed in cold M-Per protein extraction buffer followed by standard procedures as mentioned. For immunofluorescence analyses, cells were fixed in 4% paraformaldehyde solution followed by PBS washes. The cells were then incubated in blocking buffer (PBS, 5% goat serum, 0.1% saponin) for 1 h at room temperature followed by incubation in primary antibody overnight at 4°C. The cells were incubated with secondary antibodies (1:1000) for 1 h at room temperature. The coverslips were then mounted onto slides and waited overnight before analysis. Image analysis was performed by Zeiss LSM 510 META confocal microscope using 60× magnification setting.

isosbestic point (PGRN(588–593) peptide): 313 nm | Kd (PGRN588–593 peptide): 20 µM
Molecule: O=c1nc(C=Cc2cccc(Br)c2)cc(C(F)(F)F)[nH]1 [BVFP, 4-[2-(3-bromophenyl)vinyl]-6-(trifluoromethyl)-2(1H)-pyrimidinone]
UV-absorption change upon peptide titration (PGRN(588–593) peptide): shift in the ultraviolet(UV)-absorption spectra of BVFP and distinct changes of absorption intensities | inhibition of rPGRN binding to immobilized SORT1 (SORT1–PGRN interaction): dose-dependent inhibition of rPGRN binding to immobilized SORT1 | inhibition of DyL-rPGRN endocytosis [1]: 23% | inhibition at 5 µM [2]: 22% | effect on DyL-rPGRN endocytosis [3]: no effect on DyL-rPGRN endocytosis

Molecule: O=C(CCCCCCC(=O)Nc1ccccc1)NO [suberoylanilide hydroxamic acid]
GRN expression (GRN expression): enhancer of GRN expression

B1: A588G-rPGRN: rPGRN with Ala-to-Gly mutation at the A588 elastase cleavage site (protein)
chain: TRCPDGQFCPVACCLDPGGASYSCCRPLLDKWPTTLSRHLGGPCQVDAHCSAGHSCIFTVSGTSSCCPFPEAVACGDGHHCCPRGFHCSADGRSCFQRSGNNSVGAIQCPDSQFECPDFSTCCVMVDGSWGCCPMPQASCCEDRVHCCPHGAFCDLVHTRCITPTGTHPLAKKLPAQRTNRAVALSSSVMCPDARSRCPDGSTCCELPSGKYGCCPMPNATCCSDHLHCCPQDTVCDLIQSKCLSKENATTDLLTKLPAHTVGDVKCDMEVSCPDGYTCCRLQSGAWGCCPFTQAVCCEDHIHCCPAGFTCDTQKGTCEQGPHQVPWMEKAPAHLSLPDPQALKRDVPCDNVSSCPSSDTCCQLTSGEWGCCPIPEAVCCSDHQHCCPQGYTCVAEGQCQRGSEIVAGLEKMPARRASLSHPRDIGCDQHTSCPVGQTCCPSLGGSWACCQLPHAVCCEDRQHCCPAGYTCNVKARSCEKEVVSAQPATFLARSPHVGVKDVECGEGHFCHDNQTCCRDNRQGWACCPYRQGVCCADRRHCCPAGFRCAARGTKCLRREAPRWDAPLRDPGLRQLL
modifications: left off: His6, end not stated, state not stated
notes: rPGRN with Ala-to-Gly mutation at the A588 elastase cleavage site
resistance to elastase (residual full-length protein in medium) (elastase): more resistant to EL activity | uptake after elastase treatment (SORT1): endocytosed by cells to a similar extent compared with no EL control
